Source: US7265152B2 (ViroPharma Incorporated, priority 2002, dated 2007)

What was measured:
HCV NS5B = target: T1, HCV NS5B (Hepatitis C virus genotype 1b, UniProt Q9WMX2); experiment: Inhibition of viral RNA-dependent RNA polymerase (RdRp), in vitro biochemical assay; design: species or system HCV genotype 1b virus (BB7); settings: HCV NS5B RdRp, BB7; class symbols A-D; read-out: HCV pol-BB7 IC50
T1 construct: fusion protein, of which the carboxyl terminal 21 amino acids were removed to enhance its solubility; His tag (GSHHHHHH); made in house; host or cells: E. coli
Summary of the method: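 Purified recombinant NS5B from a genotype 1b consensus (BB7), His-tagged, E. coli-expressed, with the C-terminal 21 residues deleted. Inhibition of RdRp activity in vitro was measured, and IC50 is the concentration giving 50% inhibition.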

[1] = system: HCV replicon (BB7 sequence) in Huh-7-Clone A cells; experiment: HCV replicon assay: ELISA of NS5A protein in replicon-containing cells (Inhibition of Viral RNA Replication); assay type: cell-based; settings: Hepatitis C virus; HCV replicon assay; ranges of EC50; read-out: Replicon
Summary of the method: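 Huh-7-Clone A cells carrying subgenomic BB7 HCV replicon (G418-selectable) incubated 72 h with compound. NS5A protein quantified by cell ELISA: glutaraldehyde fixation, anti-NS5A monoclonal plus HRP secondary, TMB read at OD 650 nm. EC50 derived from 8-point serial dilution dose curve.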

With `CNC(=O)c1c(-c2ccc(F)cc2)oc2cc(N3CCOCC3)c(OCc3cccc(C(=O)OC)c3)cc12` [Example 263, 3-[2-(4-Fluoro-phenyl)-3-methylcarbamoyl-6-morpholin-4-yl-benzofuran-5-yloxymethyl]-benzoic acid methyl ester] the IC50 (HCV NS5B) was ≤ 500 nM and the EC50 [1] was < 10000 nM.

For `CNC(=O)c1c(-c2ccc(F)cc2)oc2cc(-c3c(C)nn(C)c3C)c(OC(C)C)cc12` [Example 264, 2-(4-Fluoro-phenyl)-5-isopropoxy-6-(1,3,5-trimethyl-1H-pyrazol-4-yl)-benzofuran-3-carboxylic acid methylamide], the IC50 (HCV NS5B) was 500 to 5000 nM and the EC50 [1] was < 10000 nM.

`CNC(=O)c1c(-c2ccc(F)cc2)oc2cc(C3CCCN3)c(OC(C)C)cc12` (centres unmarked) [Example 265, 2-(4-Fluoro-phenyl)-5-isopropoxy-6-pyrrolidin-2-yl-benzofuran-3-carboxylic acid methylamide] was tested, and the IC50 (HCV NS5B) was 5000 to 30000 nM and the EC50 [1] was > 30000 nM.

`CNC(=O)c1c(-c2ccc(F)cc2)oc2cc(C#N)c(OC)cc12` [Example 266, 6-Cyano-2-(4-fluoro-phenyl)-5-methoxy-benzofuran-3-carboxylic acid methylamide] was tested, and the IC50 (HCV NS5B) was ≤ 500 nM and the EC50 [1] was < 1000 nM.

`CNC(=O)c1c(-c2ccc(F)cc2)oc2cc(N3CCOCC3)c(OCc3ccc(C(=O)O)cc3)cc12` [Example 267, 4-[2-(4-Fluoro-phenyl)-3-methylcarbamoyl-6-morpholin-4-yl-benzofuran-5-yloxymethyl]-benzoic acid] was tested, and the IC50 (HCV NS5B) was ≤ 500 nM and the EC50 [1] was < 10000 nM.

With `CNC(=O)c1c(-c2ccc(F)cc2)oc2cc(N3CCOCC3)c(OCc3cccc(C(=O)O)c3)cc12` [Example 268, 3-[2-(4-Fluoro-phenyl)-3-methylcarbamoyl-6-morpholin-4-yl-benzofuran-5-yloxymethyl]-benzoic acid] the IC50 (HCV NS5B) was ≤ 500 nM and the EC50 [1] was < 10000 nM.

With `CNC(=O)c1c(-c2ccc(F)cc2)oc2cc(N(Cc3nnnn3C)S(C)(=O)=O)c(OC(C)C)cc12` [Example 269, 2-(4-Fluoro-phenyl)-5-isopropoxy-6-[methanesulfonyl-(1-methyl-1H-tetrazol-5-ylmethyl)-amino]-benzofuran-3-carboxylic acid methylamide] the IC50 (HCV NS5B) was ≤ 500 nM and the EC50 [1] was < 1000 nM.

In the case of `CNC(=O)c1c(-c2ccc(F)cc2)oc2cc(N(Cc3ccc(C(=O)OC)cc3)S(C)(=O)=O)c(OC(C)C)cc12` [Example 270, 4-({[2-(4-Fluoro-phenyl)-5-isopropoxy-3-methylcarbamoyl-benzofuran-6-yl]-methanesulfonyl-amino}-methyl)-benzoic acid methyl ester], the IC50 (HCV NS5B) is reported as ≤ 500 nM and the EC50 [1] is reported as < 1000 nM.

For `CNC(=O)c1c(-c2ccc(F)cc2)oc2cc(N(Cc3csc(C)n3)S(C)(=O)=O)c(OC(C)C)cc12` [Example 271, 2-(4-Fluoro-phenyl)-5-isopropoxy-6-[methanesulfonyl-(2-methyl-thiazol-4-ylmethyl)-amino]-benzofuran-3-carboxylic acid methylamide], the IC50 (HCV NS5B) was ≤ 500 nM and the EC50 [1] was < 10000 nM.

`CNC(=O)c1c(-c2ccc(F)cc2)oc2cc(N(Cc3ccc(C(=O)O)cc3)S(C)(=O)=O)c(OC(C)C)cc12` [Example 272, 4-({[2-(4-Fluoro-phenyl)-5-isopropoxy-3-methylcarbamoyl-benzofuran-6-yl]-methanesulfonyl-amino}-methyl)-benzoic acid] was tested, and the IC50 (HCV NS5B) was ≤ 500 nM and the EC50 [1] was ≤ 1000 nM.

In the case of `CNC(=O)c1c(-c2ccc(F)cc2)oc2cc(-c3cc(COC)on3)c(OC(C)C)cc12` [Example 273, 2-(4-Fluoro-phenyl)-5-isopropoxy-6-(5-methoxymethyl-isoxazol-3-yl)-benzofuran-3-carboxylic acid methylamide], the IC50 (HCV NS5B) is reported as ≤ 500 nM and the EC50 [1] is reported as < 1000 nM.

`CNC(=O)c1c(-c2ccc(F)cc2)oc2cc(-c3cc(C4CC4)on3)c(OC(C)C)cc12` [Example 274, 6-(5-Cyclopropyl-isoxazol-3-yl)-2-(4-fluoro-phenyl)-5-isopropoxy-benzofuran-3-carboxylic acid methylamide] was tested, and the IC50 (HCV NS5B) was ≤ 500 nM and the EC50 [1] was < 1000 nM.

For `CNC(=O)c1c(-c2ccc(F)cc2)oc2cc(C3CCCN3S(C)(=O)=O)c(OC(C)C)cc12` (centres unmarked) [Example 275, 2-(4-Fluoro-phenyl)-5-isopropoxy-6-(1-methanesulfonyl-pyrrolidin-2-yl)-benzofuran-3-carboxylic acid methylamide], the IC50 (HCV NS5B) was ≤ 500 nM and the EC50 [1] was < 1000 nM.

`CNC(=O)c1c(-c2ccc(F)cc2)oc2cc(C(C)=O)c(O)cc12` [Example 276, 6-Acetyl-2-(4-fluoro-phenyl)-5-hydroxy-benzofuran-3-carboxylic acid methylamide] was tested, and the IC50 (HCV NS5B) was 500 to 5000 nM and the EC50 [1] was < 10000 nM.

`CCN(c1cc2oc(-c3ccc(F)cc3)c(C(=O)NC)c2cc1OC)S(C)(=O)=O` [Example 277, 6-(Ethyl-methanesulfonyl-amino)-2-(4-fluoro-phenyl)-5-methoxy-benzofuran-3-carboxylic acid methylamide] was tested, and the IC50 (HCV NS5B) was ≤ 500 nM and the EC50 [1] was < 1000 nM.

With `CNC(=O)c1c(-c2ccc(F)cc2)oc2cc(C3CNC(=O)C3C(=O)NC)c(OC)cc12` (centres unmarked) [Example 278, 4-[2-(4-Fluoro-phenyl)-5-methoxy-3-methylcarbamoyl-benzofuran-6-yl]-2-oxo-pyrrolidine-3-carboxylic acid methylamide] the IC50 (HCV NS5B) was ≤ 500 nM and the EC50 [1] was < 10000 nM.

With `CNC(=O)c1c(-c2ccc(F)cc2)oc2cc(-c3nnc[nH]3)c(OC(C)C)cc12` [Example 279, 2-(4-Fluoro-phenyl)-5-isopropoxy-6-(4H-[1,2,4]triazol-3-yl)-benzofuran-3-carboxylic acid methylamide] the IC50 (HCV NS5B) was ≤ 500 nM and the EC50 [1] was < 30000 nM.

For `CNC(=O)c1c(-c2ccc(F)cc2)oc2cc(-c3c(C)noc3COC)c(OC)cc12` [Example 280, 2-(4-Fluoro-phenyl)-5-methoxy-6-(5-methoxymethyl-3-methyl-isoxazol-4-yl)-benzofuran-3-carboxylic acid methylamide], the IC50 (HCV NS5B) was ≤ 500 nM and the EC50 [1] was < 1000 nM.

With `CNC(=O)c1c(-c2ccc(F)cc2)oc2cc(N(Cc3ccc(OC)cc3)S(C)(=O)=O)c(OC(C)C)cc12` [Example 281, 2-(4-Fluoro-phenyl)-5-isopropoxy-6-[methanesulfonyl-(4-methoxy-benzyl)-amino]-benzofuran-3-carboxylic acid methylamide] the IC50 (HCV NS5B) was ≤ 500 nM and the EC50 [1] was < 1000 nM.

For `CNC(=O)c1c(-c2ccc(F)cc2)oc2cc(N(Cc3cc(C)on3)S(C)(=O)=O)c(OC(C)C)cc12` [Example 282, 2-(4-Fluoro-phenyl)-5-isopropoxy-6-[methanesulfonyl-(5-methyl-isoxazol-3-ylmethyl)-amino]-benzofuran-3-carboxylic acid methylamide], the IC50 (HCV NS5B) was ≤ 500 nM and the EC50 [1] was < 1000 nM.

With `CNC(=O)c1c(-c2ccc(F)cc2)oc2cc(-c3cc(C)on3)c(OC(C)C)cc12` [Example 283, 2-(4-Fluoro-phenyl)-5-isopropoxy-6-(5-methyl-isoxazol-3-yl)-benzofuran-3-carboxylic acid methylamide] the IC50 (HCV NS5B) was ≤ 500 nM and the EC50 [1] was < 1000 nM.

In the case of `CNC(=O)c1c(-c2ccc(F)cc2)oc2cc(N(Cc3c(C)noc3C)S(C)(=O)=O)c(OC(C)C)cc12` [Example 284, 6-[(3,5-Dimethyl-isoxazol-4-ylmethyl)-methanesulfonyl-amino]-2-(4-fluoro-phenyl)-5-isopropoxy-benzofuran-3-carboxylic acid methylamide], the IC50 (HCV NS5B) is reported as ≤ 500 nM and the EC50 [1] is reported as < 10000 nM.

With `CNC(=O)c1c(-c2ccc(F)cc2)oc2cc(N(Cc3nccs3)S(C)(=O)=O)c(OC(C)C)cc12` [Example 285, 2-(4-Fluoro-phenyl)-5-isopropoxy-6-(methanesulfonyl-thiazol-2-ylmethyl-amino)-benzofuran-3-carboxylic acid methylamide] the IC50 (HCV NS5B) was ≤ 500 nM and the EC50 [1] was < 1000 nM.

With `CCOC(=O)c1csc(CN(c2cc3oc(-c4ccc(F)cc4)c(C(=O)NC)c3cc2OC(C)C)S(C)(=O)=O)n1` [Example 286, 2-({[2-(4-Fluoro-phenyl)-5-isopropoxy-3-methylcarbamoyl-benzofuran-6-yl]-methanesulfonylamino}-methyl)-thiazole-4-carboxylic acid ethyl ester] the IC50 (HCV NS5B) was ≤ 500 nM and the EC50 [1] was < 10000 nM.

For `CNC(=O)c1c(-c2ccc(F)cc2)oc2cc(N(C)S(C)(=O)=O)c(O)cc12` [Example 287, 2-(4-Fluoro-phenyl)-5-hydroxy-6-(methanesulfonyl-methyl-amino)-benzofuran-3-carboxylic acid methylamide], the IC50 (HCV NS5B) was ≤ 500 nM and the EC50 [1] was < 10000 nM.

With `C=CCOc1cc2c(C(=O)NC)c(-c3ccc(F)cc3)oc2cc1N(CC=C)S(C)(=O)=O` [Example 288, 6-(Allyl-methanesulfonyl-amino)-5-allyloxy-2-(4-fluoro-phenyl)-benzofuran-3-carboxylic acid methylamide] the IC50 (HCV NS5B) was ≤ 500 nM and the EC50 [1] was < 1000 nM.

For `CNC(=O)c1c(-c2ccc(F)cc2)oc2cc(N(C(C)=O)S(C)(=O)=O)c(OC)cc12` [Example 289, 6-(Acetyl-methanesulfonyl-amino)-2-(4-fluoro-phenyl)-5-methoxy-benzofuran-3-carboxylic acid methylamide], the IC50 (HCV NS5B) was ≤ 500 nM and the EC50 [1] was < 1000 nM.

With `CNC(=O)c1c(-c2ccc(F)cc2)oc2cc(N(Cc3c(C)noc3C)S(C)(=O)=O)c(OC)cc12` [Example 290, 6-[(3,5-Dimethyl-isoxazol-4-ylmethyl)-methanesulfonyl-amino]-2-(4-fluoro-phenyl)-5-methoxy-benzofuran-3-carboxylic acid methylamide] the IC50 (HCV NS5B) was ≤ 500 nM and the EC50 [1] was < 10000 nM.
